In brackets after ≈: the same amount, converted by molar mass. Positions of bridges follow the written chain, without caps; N, C: chain ends. Non-standard residues stand in square brackets, D forms with d. Residues, ends and D or L forms follow the SMILES beside them. dNMeF = CN[C@H](Cc1ccccc1)C(=O)O
Columns and labels:
Staphylococcus aureus [1] = assay: Antibacterial activity against methicillin-resistant Staphylococcus aureus isolate 1003 after 24 hrs; assay type: functional; conditions: isolate 1003, 24 h
[2] = system: Staphylococcus saprophyticus; assay: Antibacterial activity against Staphylococcus saprophyticus ATCC 49907 after 24 hrs; assay type: functional; conditions: ATCC 49907, 24 h
Enterococcus faecalis [3] = assay: Antibacterial activity against vancomycin-resistant Enterococcus faecalis isolate 1004 after 24 hrs; assay type: functional; conditions: isolate 1004, 24 h
Enterococcus faecalis [4] = assay: Antibacterial activity against vancomycin-resistant Enterococcus faecalis isolate 1001 after 24 hrs; assay type: functional; conditions: isolate 1001, 24 h
[5] = system: Staphylococcus saprophyticus; assay: Antibacterial activity against Staphylococcus saprophyticus ATCC 49453 after 24 hrs; assay type: functional; conditions: ATCC 49453, 24 h
Enterococcus faecalis [6] = assay: Antibacterial activity against vancomycin-resistant Enterococcus faecalis isolate 1008 after 24 hrs; assay type: functional; conditions: isolate 1008, 24 h
[7] = system: Bacillus subtilis (Bacillus subtilis); assay: Antibacterial activity against Bacillus subtilis ATCC 6633 after 24 hrs; conditions: ATCC 6633, 24 h
Enterococcus faecalis [8] = assay: Antibacterial activity against vancomycin-resistant Enterococcus faecalis ATCC 29212 after 24 hrs; assay type: functional; conditions: ATCC 29212, 24 h
Staphylococcus aureus [9] = assay: Antibacterial activity against Staphylococcus aureus ATCC 29213 after 24 hrs; assay type: functional; conditions: ATCC 29213, 24 h
[10] = system: Staphylococcus saprophyticus; assay: Antibacterial activity against Staphylococcus saprophyticus ATCC 15305 after 24 hrs; assay type: functional; conditions: ATCC 15305, 24 h
Staphylococcus aureus [11] = assay: Antibacterial activity against Staphylococcus aureus 4299 after 24 hrs; assay type: functional; conditions: Staphylococcus aureus, 4299, 24 h
Staphylococcus aureus [12] = assay: Antibacterial activity against methicillin-resistant Staphylococcus aureus isolate 21455 after 24 hrs; assay type: functional; conditions: isolate 21455, 24 h
[13] = system: Staphylococcus saprophyticus; assay: Antibacterial activity against Staphylococcus saprophyticus ATCC BAA 750 after 24 hrs; assay type: functional; conditions: ATCC BAA 750, 24 h
Staphylococcus aureus [14] = assay: Antibacterial activity against methicillin-resistant Staphylococcus aureus isolate 42412 after 24 hrs; assay type: functional; conditions: isolate 42412, 24 h
Enterococcus faecalis [15] = assay: Antibacterial activity against vancomycin-resistant Enterococcus faecalis isolate 1002 after 24 hrs; assay type: functional; conditions: isolate 1002, 24 h
Enterococcus faecalis [16] = assay: Antibacterial activity against vancomycin-resistant Enterococcus faecalis ATCC 700802 after 24 hrs; assay type: functional; conditions: ATCC 700802, 24 h
Staphylococcus aureus [17] = assay: Antibacterial activity against methicillin-resistant Staphylococcus aureus ATCC 700699 after 24 hrs; assay type: functional; conditions: ATCC 700699, 24 h
Bacillus cereus = assay: Antibacterial activity against Bacillus cereus ATCC 11788 after 24 hrs; assay type: functional; conditions: ATCC 11788, 24 h
[18] = system: Staphylococcus epidermidis; assay: Antibacterial activity against Staphylococcus epidermidis 12228 after 24 hrs; assay type: functional; conditions: Staphylococcus epidermidis, 12228, 24 h
Staphylococcus aureus [19] = assay: Antibacterial activity against methicillin-resistant Staphylococcus aureus ATCC 33591 after 24 hrs; assay type: functional; conditions: ATCC 33591, 24 h

Structure (SMILES)	MIC (Staphylococcus aureus [1]) [mg/L]	MIC [2] [mg/L]	MIC (Enterococcus faecalis [3]) [mg/L]	MIC (Enterococcus faecalis [4]) [mg/L]	MIC [5] [mg/L]	MIC (Enterococcus faecalis [6]) [mg/L]	MIC [7] [mg/L]	MIC (Enterococcus faecalis [8]) [mg/L]	MIC (Staphylococcus aureus [9]) [mg/L]	MIC [10] [mg/L]	MIC (Staphylococcus aureus [11]) [mg/L]	MIC (Staphylococcus aureus [12]) [mg/L]	MIC [13] [mg/L]	MIC (Staphylococcus aureus [14]) [mg/L]	MIC (Enterococcus faecalis [15]) [mg/L]	MIC (Enterococcus faecalis [16]) [mg/L]	MIC (Staphylococcus aureus [17]) [mg/L]	MIC (Bacillus cereus) [mg/L]	MIC [18] [mg/L]	MIC (Staphylococcus aureus [19]) [mg/L]
CC[C@@H](C)[C@@H](NC(=O)[C@@H](CCC(N)=O)NC(=O)[C@H](CO)NC(=O)[C@@H](NC(=O)[C@@H](Cc1ccccc1)NC)[C@@H](C)CC)C(=O)N[C@H](C(=O)N[C@@H](CO)C(=O)N[C@H]1C(=O)N[C@@H](CCCNC(=N)N)C(=O)N[C@@H](CC(C)C)C(=O)N[C@@H]([C@@H](C)CC)C(=O)O[C@H]1C)[C@@H](C)CC (H-[dNMeF]IS[dQ][dI]IS[dT]RLI; ester 8-C)	0.25 (≈ 0.194 µM)	< 0.0625	0.25 (≈ 0.194 µM)	0.5 (≈ 0.389 µM)	< 0.0625	0.25 (≈ 0.194 µM)	< 0.0625	1 (≈ 0.777 µM)	0.5 (≈ 0.389 µM)	< 0.0625	0.25 (≈ 0.194 µM)	0.25 (≈ 0.194 µM)	< 0.0625	< 0.0625	1 (≈ 0.777 µM)	0.5 (≈ 0.389 µM)	0.5 (≈ 0.389 µM)	0.25 (≈ 0.194 µM)	< 0.0625	0.125 (≈ 0.0972 µM)
CC[C@@H](C)[C@@H](NC(=O)[C@@H](CCC(N)=O)NC(=O)[C@H](CCCNC(=N)N)NC(=O)[C@@H](NC(=O)[C@@H](Cc1ccccc1)NC)[C@@H](C)CC)C(=O)N[C@H](C(=O)N[C@@H](CO)C(=O)N[C@H]1C(=O)N[C@@H](C)C(=O)N[C@@H](CC(C)C)C(=O)N[C@@H]([C@@H](C)CC)C(=O)O[C@H]1C)[C@@H](C)CC (H-[dNMeF]IR[dQ][dI]IS[dT]ALI; ester 8-C)	< 0.0625	< 0.0625	< 0.0625	0.25 (≈ 0.197 µM)	< 0.0625	0.125 (≈ 0.0984 µM)	< 0.0625	0.5 (≈ 0.394 µM)	0.25 (≈ 0.197 µM)	< 0.0625	0.125 (≈ 0.0984 µM)	0.0312 (≈ 0.0246 µM)	< 0.0625	< 0.0625	0.5 (≈ 0.394 µM)	0.5 (≈ 0.394 µM)	0.5 (≈ 0.394 µM)	< 0.0625	< 0.0625	0.125 (≈ 0.0984 µM)
CC[C@@H](C)[C@@H](NC(=O)[C@@H](CCC(N)=O)NC(=O)[C@H](CCCNC(=N)N)NC(=O)[C@@H](NC(=O)[C@@H](Cc1ccccc1)NC)[C@@H](C)CC)C(=O)N[C@H](C(=O)N[C@@H](CO)C(=O)N[C@H]1C(=O)N[C@@H](C)C(=O)N[C@@H]([C@@H](C)CC)C(=O)N[C@@H]([C@@H](C)CC)C(=O)O[C@H]1C)[C@@H](C)CC	0.125 (≈ 0.0984 µM)	< 0.0625	1 (≈ 0.787 µM)	1 (≈ 0.787 µM)	< 0.0625	1 (≈ 0.787 µM)	< 0.0625	1 (≈ 0.787 µM)	0.5 (≈ 0.394 µM)	< 0.0625	0.125 (≈ 0.0984 µM)	0.25 (≈ 0.197 µM)	< 0.0625	0.125 (≈ 0.0984 µM)	1 (≈ 0.787 µM)	1 (≈ 0.787 µM)	1 (≈ 0.787 µM)	0.125 (≈ 0.0984 µM)	< 0.0625	0.25 (≈ 0.197 µM)
CC[C@@H](C)[C@@H](NC(=O)[C@@H](CCCNC(=N)N)NC(=O)[C@H](CO)NC(=O)[C@@H](NC(=O)[C@@H](Cc1ccccc1)NC)[C@@H](C)CC)C(=O)N[C@H](C(=O)N[C@@H](CO)C(=O)N[C@H]1C(=O)N[C@@H](C)C(=O)N[C@@H]([C@@H](C)CC)C(=O)N[C@@H]([C@@H](C)CC)C(=O)O[C@H]1C)[C@@H](C)CC	< 0.0625	< 0.0625	0.5 (≈ 0.407 µM)	0.5 (≈ 0.407 µM)	< 0.0625	0.5 (≈ 0.407 µM)	< 0.0625	0.25 (≈ 0.203 µM)	0.0625 (≈ 0.0508 µM)	< 0.0625	< 0.0625	0.0312 (≈ 0.0254 µM)	< 0.0625	< 0.0625	1 (≈ 0.813 µM)	0.25 (≈ 0.203 µM)	0.25 (≈ 0.203 µM)	< 0.0625	< 0.0625	0.125 (≈ 0.102 µM)
CC[C@@H](C)[C@@H](NC(=O)[C@@H](CCC(N)=O)NC(=O)[C@H](CCCNC(=N)N)NC(=O)[C@@H](NC(=O)[C@@H](Cc1ccccc1)NC)[C@@H](C)CC)C(=O)N[C@H](C(=O)N[C@@H](CO)C(=O)N[C@H]1C(=O)N[C@@H](CCCNC(=N)N)C(=O)N[C@@H](CC(C)C)C(=O)N[C@@H]([C@@H](C)CC)C(=O)O[C@H]1C)[C@@H](C)CC (H-[dNMeF]IR[dQ][dI]IS[dT]RLI; ester 8-C)	2 (≈ 1.48 µM)	< 0.0625	0.5 (≈ 0.369 µM)	0.5 (≈ 0.369 µM)	< 0.0625	0.5 (≈ 0.369 µM)	< 0.0625	1 (≈ 0.738 µM)	1 (≈ 0.738 µM)	< 0.0625	0.5 (≈ 0.369 µM)	1 (≈ 0.738 µM)	< 0.0625	0.25 (≈ 0.184 µM)	1 (≈ 0.738 µM)	1 (≈ 0.738 µM)	1 (≈ 0.738 µM)	1 (≈ 0.738 µM)	< 0.0625	1 (≈ 0.738 µM)
CC[C@@H](C)[C@@H](NC(=O)[C@@H](CCCNC(=N)N)NC(=O)[C@H](CCCNC(=N)N)NC(=O)[C@@H](NC(=O)[C@@H](Cc1ccccc1)NC)[C@@H](C)CC)C(=O)N[C@H](C(=O)N[C@@H](CO)C(=O)N[C@H]1C(=O)N[C@@H](C)C(=O)N[C@@H](CC(C)C)C(=O)N[C@@H]([C@@H](C)CC)C(=O)O[C@H]1C)[C@@H](C)CC (H-[dNMeF]IR[dR][dI]IS[dT]ALI; ester 8-C)	1 (≈ 0.77 µM)	< 0.0625	0.5 (≈ 0.385 µM)	1 (≈ 0.77 µM)	< 0.0625	0.5 (≈ 0.385 µM)	< 0.0625	1 (≈ 0.77 µM)	0.25 (≈ 0.193 µM)	< 0.0625	0.25 (≈ 0.193 µM)	0.5 (≈ 0.385 µM)	< 0.0625	0.25 (≈ 0.193 µM)	1 (≈ 0.77 µM)	2 (≈ 1.54 µM)	0.5 (≈ 0.385 µM)	1 (≈ 0.77 µM)	< 0.0625	0.25 (≈ 0.193 µM)
